According to US9963496B2, “Stable glucagon analogues and use for treatment of hypoglycaemia” (Novo Nordisk A/S, priority 2014, dated 2018):
*1 amine or outer side, *2 acyl side, *3 side chain or, on linkers, in order; H or OH if unused. Where a SMILES comes first, the peptide text is derived from it. Side-chain parts run from the residue outwards. [ ]: non-standard residue; d: D form. The star is where a group is joined. γGlu = O=C(O)[C@H](CCC(=O)[*:2])N[*:1]; Desaminohistidyl = O=C(CCc1c[nH]cn1)*; Aib = CC(C)(N)C(=O)O

Legend:
[1] = target: T1, human glucagon receptor (Homo sapiens, UniProt P47871); assay: Assay (I)(b): glucagon receptor activation, CRE luciferase reporter gene assay in BHK cells; assay type: cell-based; conditions: BHK cells expressing human glucagon receptor and CRE luciferase, 3 h incubation; read-out: EC50 hGlucagonR
T1 construct: expressed in transfected cells; host or cells: BHK cells, clone BHK hGCGR A3*25; isolated membranes
T1 sequence (P47871 26-477): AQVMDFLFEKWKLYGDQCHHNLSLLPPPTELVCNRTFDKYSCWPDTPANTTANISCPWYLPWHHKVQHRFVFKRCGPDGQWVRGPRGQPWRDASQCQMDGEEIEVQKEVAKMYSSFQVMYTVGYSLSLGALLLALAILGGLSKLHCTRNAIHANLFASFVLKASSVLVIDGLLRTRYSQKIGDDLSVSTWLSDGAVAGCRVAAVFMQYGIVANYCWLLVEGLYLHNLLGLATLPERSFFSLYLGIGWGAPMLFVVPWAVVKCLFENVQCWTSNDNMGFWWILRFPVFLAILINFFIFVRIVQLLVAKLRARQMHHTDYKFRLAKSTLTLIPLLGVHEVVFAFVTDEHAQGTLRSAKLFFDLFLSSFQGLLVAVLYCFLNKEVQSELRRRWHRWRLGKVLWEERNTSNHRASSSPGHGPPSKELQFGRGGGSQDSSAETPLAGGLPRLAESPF
Procedure: The purpose of this assay is to test the activity, or potency, of the derivatives of the invention, in vitro. The in vitro potency is the measure of human GLP-1 receptor and/or glucagon receptor activation, respectively, in a whole cell assay.
In vitro potency was determined by measuring the response of human GLP-1 or glucagon receptor, respectively, in a reporter gene assay. The assay was performed in a stably transfected BHK cell line that expressed either the human GLP-1 receptor or the human glucagon receptor and contained the DNA for the cAMP response element (CRE) coupled to a promoter and the gene for firefly luciferase (CRE luciferase). […] When assay incubation was completed, the luciferase substrate (luciferin) was added and the enzyme converted luciferin to oxyluciferin and produced bioluminescence. The luminescence was measured as the readout for the assay.
(b) Glucagon Receptor Activation
The cells used in this assay (clone pLJ6′-4-25) were BHK cells with BHK570 as a parent cell line expressing the CRE luciferase gene (clone BHK/KZ10-20-48) and were established by further transfection with the human glucagon receptor (clone pLJ6′ in pHZ-1 vector).
The cells were cultured at 5% CO2 in DMEM medium with 10% FBS, 1× GlutaMAX, 1 mg/mL G418, 240 nM MTX (methotrexate) and 1% pen/strep (penicillin/streptomycin). They were aliquoted and stored in liquid nitrogen. Before each assay, an aliquot was taken up and washed three times in PBS before being suspended at the desired concentration in assay buffer. For 96-well plates the suspension was made to give a final concentration of 5×10 EE3 cells/well.
Assay Medium consisted of DMEM w/o phenol red, 10 mM Hepes, lx GlutaMAX, 2% Ovalbumin and 0.2% Pluronic F-68.
Cell stocks were thawed in a 37° C. water bath. Cells were washed three times in PBS. The cells were counted and adjusted to 5×10 EE3 cells/50 μl (1×10 EE5 cells/mL) in Assay Medium. A 50 μl aliquot of cells was transferred to each well in the assay plate.
Stocks of the test compounds and reference compounds were diluted to a concentration of […] in Assay Medium. Compounds were diluted 10-fold to give the following concentrations: […], 2×10 EE-7 M, 2×10 EE-8 M; 2×10 EE-9 M, 2×10 EE-10 M, 2×10 EE-11 M, 2×10 EE-12 M and 2×10 EE-13 M. For each compound a blank assay buffer control was also included.
A 50 μl aliquot of compound or blank was transferred from the dilution plate to the assay plate. Compounds were tested at the following final concentrations: 1×10 EE-6 M, 1×10 EE-7 M, 1×10 EE-8 M; 1×10 EE-9 M, 1×10 EE-10 M, 1×10 EE-11 M and 1×10 EE-12 M and 1×10 EE-13 M.
The assay plate was incubated for 3 h in a 5% CO2 incubator at 37° C. The assay plate was removed from the incubator and allowed to stand at room temperature for 15 min. A 100 μl aliquot of steadylite plus reagent was added to each well of the assay plate (reagent is light sensitive). Each assay plate was covered with aluminum foil to protect it from light and shaken for 30 min at room temperature. Each assay plate was read in a Packard TopCount NXT instrument.
The data from the TopCount instrument was transferred to GraphPad Prism software. The software performed a non-linear regression (log(agonist) vs response-Variable slope (four parameter)). EC50 values were calculated by the software and reported in pM.

[2] = physchem; assay type: physicochemical; conditions: pH 7.5
Method in brief: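 Peptide at 250 μM in 10 mM HEPES pH 7.5 with 1 μM Thioflavin T, incubated at 37° C with 960 rpm orbital shaking. ThT fluorescence (ex 444/em 485 nm) read every 20 min; lag-time (t0−2τ) and kapp (1/τ) from curve fit. Recovery is post-assay supernatant peptide by RP-HPLC as % of initial.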

SMILES | EC50 [1] [pM] | recovery at 250 μM [2] [%]
CC(=O)N[C@@H](CCC(=O)N[C@@H](CCC(=O)N[C@@H](CCC(=O)NCCCC[C@H](NC(=O)[C@@H](NC(=O)[C@H](Cc1ccccc1)NC(=O)[C@H](CCC(=O)O)NC(=O)[C@H](CCC(N)=O)NC(=O)[C@H](C)NC(=O)[C@H](CCCNC(=N)N)NC(=O)[C@H](CCCNC(=N)N)NC(=O)[C@H](CO)NC(=O)[C@H](CCC(=O)O)NC(=O)[C@H](CC(C)C)NC(=O)[C@H](Cc1ccc(O)cc1)NC(=O)[C@H](CCCCN)NC(=O)[C@H](CO)NC(=O)[C@H](Cc1ccc(O)cc1)NC(=O)[C@H](CC(=O)O)NC(=O)[C@H](CO)NC(=O)[C@@H](NC(=O)[C@H](Cc1ccccc1)NC(=O)[C@@H](NC(=O)CNC(=O)[C@H](Cc1c[nH]cn1)NC(=O)[C@H](CO)NC(=O)CCc1c[nH]cn1)[C@@H](C)O)[C@@H](C)O)C(C)C)C(=O)N[C@@H](Cc1c[nH]c2ccccc12)C(=O)N[C@@H](CC(C)C)C(=O)N[C@@H](CC(C)C)C(=O)N[C@@H](CO)C(=O)N[C@H](C(=O)O)[C@@H](C)O)C(=O)O)C(=O)O)C(=O)O [Example 18, N^ϵ24-[(4S)-4-[[(4S)-4-[[(4S)-4-acetamido-4-carboxybutanoyl]amino]-4-carboxybutanoyl]amino]-4-carboxybutanoyl]-[Imp1, His3, Glu15, Glu21, Lys24, Leu27, Ser28]-Glucagon] (Desaminohistidyl-SHGTFTSDYSKYLESRRAQEFVK([γGlu-γGlu-γGlu-Ac])WLLST-OH) | 6 | 100
CC(=O)N[C@@H](CCC(=O)N[C@@H](CCC(=O)N[C@@H](CCC(=O)N[C@@H](CCC(=O)NCCCC[C@H](NC(=O)[C@@H](NC(=O)[C@H](Cc1ccccc1)NC(=O)[C@H](CC(=O)O)NC(=O)[C@H](CCC(N)=O)NC(=O)[C@H](C)NC(=O)[C@H](CCCNC(=N)N)NC(=O)[C@H](CCCNC(=N)N)NC(=O)[C@H](C)NC(=O)[C@H](CC(=O)O)NC(=O)[C@H](CC(C)C)NC(=O)[C@H](Cc1ccc(O)cc1)NC(=O)[C@H](CCCCN)NC(=O)[C@H](CO)NC(=O)[C@H](Cc1ccc(O)cc1)NC(=O)[C@H](CC(=O)O)NC(=O)[C@H](CO)NC(=O)[C@@H](NC(=O)[C@H](Cc1ccccc1)NC(=O)[C@@H](NC(=O)CNC(=O)[C@H](Cc1c[nH]cn1)NC(=O)[C@H](CO)NC(=O)CCc1c[nH]cn1)[C@@H](C)O)[C@@H](C)O)C(C)C)C(=O)N[C@@H](Cc1c[nH]c2ccccc12)C(=O)N[C@@H](CC(C)C)C(=O)N[C@@H](CC(C)C)C(=O)N[C@@H](CO)C(=O)N[C@H](C(=O)O)[C@@H](C)O)C(=O)O)C(=O)O)C(=O)O)C(=O)O [Example 20, N^ϵ24-[(4S)-4-[[(4S)-4-[[(4S)-4-[[(4S)-4-acetamido-4-carboxybutanoyl]amino]-4-carboxybutanoyl]amino]-4-carboxybutanoyl]amino]-4-carboxybutanoyl]-[Imp1, His3, Ala16, Lys24, Leu27, Ser28]-Glucagon] (Desaminohistidyl-SHGTFTSDYSKYLDARRAQDFVK([γGlu-γGlu-γGlu-γGlu-Ac])WLLST-OH) | 4 | 105
CC(=O)N[C@@H](CCC(=O)N[C@@H](CCC(=O)N[C@@H](CCC(=O)N[C@@H](CCC(=O)N[C@@H](CCC(=O)NCCCC[C@H](NC(=O)[C@@H](NC(=O)[C@H](Cc1ccccc1)NC(=O)[C@H](CCC(=O)O)NC(=O)[C@H](CCC(N)=O)NC(=O)[C@H](C)NC(=O)[C@H](CCCNC(=N)N)NC(=O)[C@H](CCCNC(=N)N)NC(=O)[C@H](CO)NC(=O)[C@H](CCC(=O)O)NC(=O)[C@H](CC(C)C)NC(=O)[C@H](Cc1ccc(O)cc1)NC(=O)[C@H](CCCCN)NC(=O)[C@H](CO)NC(=O)[C@H](Cc1ccc(O)cc1)NC(=O)[C@H](CC(=O)O)NC(=O)[C@H](CO)NC(=O)[C@@H](NC(=O)[C@H](Cc1ccccc1)NC(=O)[C@@H](NC(=O)CNC(=O)[C@H](Cc1c[nH]cn1)NC(=O)[C@H](CO)NC(=O)CCc1c[nH]cn1)[C@@H](C)O)[C@@H](C)O)C(C)C)C(=O)N[C@@H](Cc1c[nH]c2ccccc12)C(=O)N[C@@H](CC(C)C)C(=O)N[C@@H](CC(C)C)C(=O)N[C@@H](CO)C(=O)N[C@H](C(=O)O)[C@@H](C)O)C(=O)O)C(=O)O)C(=O)O)C(=O)O)C(=O)O [Example 19, N^ϵ24-[(4S)-4-[[(4S)-4-[[(4S)-4-[[(4S)-4-[[(4S)-4-acetamido-4-carboxybutanoyl]amino]-4-carboxybutanoyl]amino]-4-carboxybutanoyl]amino]-4-carboxybutanoyl]amino]-4-carboxybutanoyl]-[Imp1, His3, Glu15, Glu21, Lys24, Leu27, Ser28]-Glucagon] (Desaminohistidyl-SHGTFTSDYSKYLESRRAQEFVK([γGlu-γGlu-γGlu-γGlu-γGlu-Ac])WLLST-OH) | 6 | 104
CC(=O)N[C@@H](CCC(=O)N[C@@H](CCC(=O)N[C@@H](CCC(=O)N[C@@H](CCC(=O)NCCCC[C@H](NC(=O)[C@@H](NC(=O)[C@H](Cc1ccccc1)NC(=O)[C@H](CCC(=O)O)NC(=O)[C@H](CCC(N)=O)NC(=O)[C@H](C)NC(=O)[C@H](CCCNC(=N)N)NC(=O)[C@H](CCCNC(=N)N)NC(=O)[C@H](CO)NC(=O)[C@H](CCC(=O)O)NC(=O)[C@H](CC(C)C)NC(=O)[C@H](Cc1ccc(O)cc1)NC(=O)[C@H](CCCCN)NC(=O)[C@H](CO)NC(=O)[C@H](Cc1ccc(O)cc1)NC(=O)[C@H](CC(=O)O)NC(=O)[C@H](CO)NC(=O)[C@@H](NC(=O)[C@H](Cc1ccccc1)NC(=O)[C@@H](NC(=O)CNC(=O)[C@H](Cc1c[nH]cn1)NC(=O)C(C)(C)NC(=O)CCc1c[nH]cn1)[C@@H](C)O)[C@@H](C)O)C(C)C)C(=O)N[C@@H](Cc1c[nH]c2ccccc12)C(=O)N[C@@H](CC(C)C)C(=O)N[C@@H](CC(C)C)C(=O)N[C@@H](CO)C(=O)N[C@H](C(=O)O)[C@@H](C)O)C(=O)O)C(=O)O)C(=O)O)C(=O)O [Example 7, N^ϵ24-[(4S)-4-[[(4S)-4-[[(4S)-4-[[(4S)-4-acetamido-4-carboxybutanoyl]amino]-4-carboxybutanoyl]amino]-4-carboxybutanoyl]amino]-4-carboxybutanoyl]-[Imp1, Aib2, His3, Glu15, Glu21, Lys24, Leu27, Ser28]-Glucagon] (Desaminohistidyl-[Aib]HGTFTSDYSKYLESRRAQEFVK([γGlu-γGlu-γGlu-γGlu-Ac])WLLST-OH) | 2 | 100
CC(=O)N[C@@H](CCC(=O)N[C@@H](CCC(=O)N[C@@H](CCC(=O)N[C@@H](CCC(=O)NCCCC[C@H](NC(=O)[C@@H](NC(=O)[C@H](Cc1ccccc1)NC(=O)[C@H](CCC(=O)O)NC(=O)[C@H](CCC(N)=O)NC(=O)[C@H](C)NC(=O)[C@H](CCCNC(=N)N)NC(=O)[C@H](CCCNC(=N)N)NC(=O)[C@H](CO)NC(=O)[C@H](CCC(=O)O)NC(=O)[C@H](CC(C)C)NC(=O)[C@H](Cc1ccc(O)cc1)NC(=O)[C@H](CCCCN)NC(=O)[C@H](CO)NC(=O)[C@H](Cc1ccc(O)cc1)NC(=O)[C@H](CC(=O)O)NC(=O)[C@H](CO)NC(=O)[C@@H](NC(=O)[C@H](Cc1ccccc1)NC(=O)[C@@H](NC(=O)CNC(=O)[C@H](Cc1c[nH]cn1)NC(=O)[C@H](CO)NC(=O)CCc1c[nH]cn1)[C@@H](C)O)[C@@H](C)O)C(C)C)C(=O)N[C@@H](Cc1c[nH]c2ccccc12)C(=O)N[C@@H](CC(C)C)C(=O)N[C@@H](CC(C)C)C(=O)N[C@@H](CCC(=O)O)C(=O)N[C@H](C(=O)O)[C@@H](C)O)C(=O)O)C(=O)O)C(=O)O)C(=O)O [Example 22, N^ϵ24-[(4S)-4-[[(4S)-4-[[(4S)-4-[[(4S)-4-acetamido-4-carboxybutanoyl]amino]-4-carboxybutanoyl]amino]-4-carboxybutanoyl]amino]-4-carboxybutanoyl]-[Imp1, His3, Glu15, Glu21, Lys24, Leu27, Glu28]-Glucagon] (Desaminohistidyl-SHGTFTSDYSKYLESRRAQEFVK([γGlu-γGlu-γGlu-γGlu-Ac])WLLET-OH) | 17 | 100
